Consider 2 compounds from US7169612B2, “Use of EDG2 receptor in an animal model of heart failure” (Sanofi-Aventis Deutschland GmbH, priority 2002, dated 2007).

In assay [1] the test system is EDG2-overexpressing cardiomyocytes. The experiment in a line: Shortening measurements (contractility) in single isolated cardiomyocytes after Ad-EDG2-GFP gene transfer. The format is cell-based, rabbit. The protocol: (§1) Contractility of infected cardiomyocytes was measured by an electro-optical monitoring system connected to online digitalized assessment of amplitude and velocity of shortening and of relaxation. Transgene-positive cardiomyocytes were identified by co-expression of GFP under fluorescent light. After the contraction amplitude reached stability, increasing concentrations of isoproterenol were applied at constant concentrations of lysophosphatidic acid (LPA; 10^−5 mol/l); or increasing LPA concentrations were added to constant concentrations of isoproterenol (10^−8 mol/l).
(§2) In order to investigate the effects of EDG2 on cardiomyocyte contractility, fractional shortening and velocity of shortening in single, isolated cardiomyocytes from failing hearts after ex vivo gene transfer was measured.
(§3) Single calcium-tolerant ventricular cardiomyocytes were isolated from failing White New Zealand rabbit hearts. Briefly, the hearts were perfused and digested with collagenase. The isolated cardiomyocytes were cultured in modified M199 on laminin-precoated dishes (5–10 μg/cm^2) at a density of 1.5×10^5 cells per cm^2 (at 5% CO2 and 37° C.). For contraction experiments, the cells were infected with adenovirus (multiplicity of infection (moi) 1 pfu/cell) 5 hours after plating. 50–60% of the infected cardiomyocytes expressed the transgene at this titer.

Assay [2] has as its system control GFP cardiomyocytes. The assay can be described thus: Shortening measurements (contractility) in single isolated cardiomyocytes after Ad-GFP gene transfer (control). The format is cell-based, rabbit. The following applies: increasing concentrations of LPA after prestimulation with isoproterenol 10^-8 mol/l; control GFP group; FIG. 2. The method, then:
as §1, §2, §3

For another assay, the target named is T1, human EDG2 (Homo sapiens, UniProt Q92633).
T1 construct: host or cells: HEK293 cells expressing human EDG2
To be noted: HEK293 cells expressing the human EDG2 protein; LPA concentration dependent; cited from earlier work.

T1 sequence (Q92633 whole entry): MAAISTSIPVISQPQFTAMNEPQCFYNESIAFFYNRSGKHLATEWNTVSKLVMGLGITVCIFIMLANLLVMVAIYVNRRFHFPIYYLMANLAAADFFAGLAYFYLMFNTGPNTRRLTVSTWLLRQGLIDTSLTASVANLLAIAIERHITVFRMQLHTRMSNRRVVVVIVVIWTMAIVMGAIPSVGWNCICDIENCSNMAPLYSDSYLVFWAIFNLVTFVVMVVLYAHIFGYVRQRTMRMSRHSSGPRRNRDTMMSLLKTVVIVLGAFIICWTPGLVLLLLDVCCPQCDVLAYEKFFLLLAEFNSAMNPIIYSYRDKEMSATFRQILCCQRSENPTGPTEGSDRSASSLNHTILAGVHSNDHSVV

`CC(C)NCC(O)c1ccc(O)c(O)c1` (stereo not drawn) [isoproterenol]: in assay [1] (increasing concentrations of isoproterenol at constant LPA 10^-5 mol/l, EDG2-overexpressing versus control, FIG. 1), the “inotropic effect (fractional shortening)” value is given as “significantly lower positively inotropic effect”.
With lysophosphatidic acid [LPA], in assay [1] (LPA 10^-5 mol/l, isolated cardiomyocytes from failing hearts), the “effect on basal contractility of cardiomyocytes” value is recorded as “does not alter basal contractility”. Besides, the “effect on contractility of cardiomyocytes” value in assay [1] (absence of prestimulation with isoproterenol) was “no effect on the contractility”. Further, the “inotropic effect (fractional shortening)” value in assay [1] (increasing concentrations of LPA after prestimulation with isoproterenol 10^-8 mol/l, FIG. 2) was “significant negatively inotropic effect”; in assay [2], “no effect”. On human EDG2, the “response in serum response element reporter gene assay” value is recorded as “elevated response”.
